Test results: patent US6927233B1, “5ht2 agonists for controlling IOP and treating glaucoma” (Alcon, Inc., priority 2000, dated 2005)

Test system: lasered monkey model of ocular hypertension
Assay: IOP response in the lasered monkey model of ocular hypertension
Assay type: in vivo, cynomolgus monkeys
Details: for IOP Response % Change, 1 hr / IOP decrease from baseline (mmHg) / IOP Response % Change, 3 hr / IOP Response % Change, 6 hr: 300 μg topical, one 30 μL aliquot to right (lasered) eye, change from baseline IOP; for effect on IOP (in words): dosed at 300 μg, lasered monkey model of ocular hypertension
Experimental: Intraocular pressure was determined with an Alcon Pneumatonometer after light corneal anesthesia with 0.1% proparacaine. Eyes were washed with saline after-each measurement. After a baseline IOP measurement, test compound was instilled in one 30 μL aliquot to the right eyes only of nine cynomolgus monkeys. Vehicle was instilled in the right eyes of six additional animals. Subsequent IOP measurements were taken at 1, 3, and 6 hours. A compound is considered efficacious in this model of ocular hypertension if there is a decrease in the baseline IOP of the lasered eye (O.D.) of at least 20% following topical administration.

Structure (SMILES) | IOP Response % Change, 1 hr (1 hr after dosing) | IOP decrease from baseline (mmHg) (1 hr after dosing) | IOP Response % Change, 3 hr (3 hr after dosing) | IOP decrease from baseline (mmHg) (3 hr after dosing) | IOP Response % Change, 6 hr (6 hr after dosing) | IOP decrease from baseline (mmHg) (6 hr after dosing) | effect on IOP (in words)
CC(N)Cn1ncc2ccc(O)cc21 (single isomer, unassigned; isomer 1) [S-(+)-isomer, 1-(2-aminopropyl)-indazol-6-ol] | −15.0% | 6.4 mmHg | −35.3% | 14.8 mmHg | −40.8% | 17.1 mmHg | significant decrease in IOP
CC(N)Cn1ncc2ccc(O)cc21 (centres unmarked) [Compound, 1-(2-aminopropyl)-indazol-6-ol] | −17.6% | 7.3 mmHg | −28.1% | 11.8 mmHg | −33.8% | 14.6 mmHg | significant decrease in IOP
